Where a name gives a salt, the structure may show the parent alone.
How the values were obtained:
PPARδ = experiment: Luciferase assay with GAL4-Ppard and MH2004 reporter in CV1 cells; type: cell-based; settings: for Light emission intensity (RLU) Average: 10 μM of each compound in DMSO, 12 hours; for Relative emission intensity Average: 10 μM of each compound, DMSO control defined as 1, n=3
Method: Among the compounds (1-1-4), the effects of compound (B-1), compound (B-2), and compound (B-3) on the transcriptional regulation of PPARδ were investigated. The effects on the transcriptional activity of PPARδ were measured by performing a luciferase assay on the cells treated with 10 μM of each compound dissolved in DMSO. Specifically, CV1 cells, which are cultured cells derived from African green monkey kidneys, were seeded on a 24-well plate (1×10^5 cells/well) and cultured until they became 70% confluent. DMEM containing 10% fetal bovine serum and 1% antibiotic was used as the culture medium. […] Then, the collected cells were lysed in a cell lysis buffer, suspended with a luminescent substrate (firefly luciferin), and the luminescence of the suspension was measured with a luminometer. In addition, the remaining suspension was mixed with Renilla luciferin and the amount of luminescence was measured with a luminometer. The result of the amount of light emitted by Renilla luciferin was used as the intrinsic control of gene transfer. Finally, the amount of luminescence of firefly luciferin was calculated as a light emission intensity (RLU) by dividing by the amount of luminescence of Renilla luciferin. The relative emission intensity of the reaction solution treated with each compound was determined as the transcriptional activation ability of PPARδ in each compound treatment, where the light emission intensity of the reaction solution to which an equal amount of DMSO was added (control) was defined as 1. The relative emission intensities were all 1.1 or more in the reaction solutions to which the compounds were added, and the transcriptional activity of PPARδ was increased. […] The effect of the obtained compound (A-4) on PPARδ activity was investigated. […] However, when the addition amount was 50 μM or more, the cells died and it was impossible to measure the transcription activity of PPARδ.

endogenous PPARα = target: T1, endogenous PPARα (Homo sapiens, UniProt Q07869); experiment: Affinity purification using Met-beads and HepG2 cell extract, binding to PPARα; settings: HepG2 cell extract
T1 construct: endogenous in cells; host or cells: HepG2
T1 sequence (Q07869 1-468): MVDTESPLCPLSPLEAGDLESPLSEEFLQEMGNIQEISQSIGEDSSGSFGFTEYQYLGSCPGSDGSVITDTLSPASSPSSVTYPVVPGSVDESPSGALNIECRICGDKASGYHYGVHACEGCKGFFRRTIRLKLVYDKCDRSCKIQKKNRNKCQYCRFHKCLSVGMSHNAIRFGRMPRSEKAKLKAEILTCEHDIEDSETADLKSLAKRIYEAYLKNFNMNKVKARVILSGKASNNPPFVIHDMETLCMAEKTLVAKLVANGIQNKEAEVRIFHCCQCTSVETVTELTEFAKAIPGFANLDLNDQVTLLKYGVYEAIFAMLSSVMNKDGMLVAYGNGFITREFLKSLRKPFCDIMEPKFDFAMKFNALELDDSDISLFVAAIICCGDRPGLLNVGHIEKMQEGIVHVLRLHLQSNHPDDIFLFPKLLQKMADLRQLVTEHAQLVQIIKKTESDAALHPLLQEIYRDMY
Method: […] is a member of the nuclear receptor superfamily, with PPARα and […] as the other two family members. Affinity purification was performed using the Met-beads and HepG2 cell extract to verify the binding to endogenous PPARα.

C57BL/6 mice = experiment: Final exercise tolerance test on treadmill (NOS50); type: in vivo; settings: 25 mg/kg intraperitoneal
Method: For the metformin-non-administered group, an equal volume of PBS was intraperitoneally administered instead of the metformin/PBS solution.
The training for the final exercise tolerance test, in which the speed at start was 15 m/min and increased by 1 m/min every 10 minutes, and the running time after the speed reached 20 m/min was 10 minutes (1 hour in total), was performed 5 times a week for a total of 4 weeks using a treadmill device.
First, twenty 10-week-old male C57BL/6 mice were divided into 4 groups (5 mice per group). […] In addition, in order to average the motivation for exercise and exercise preference of individual mice in each group, the first exercise tolerance test was performed after training acclimatization to rank the mice, and the mice were divided into 4 groups so that the test results were even. Furthermore, in the test after the training period, the exercise tolerance was evaluated in such a manner that the running time was set as the time until the number of electrode contacts during the test reached 50 (number of shocks: NOS50), the speed at the start was set as 15 m/min and increased by 1 m/min every 10 minutes, and when the speed reached the maximum speed of 30 m/min, the running at the maximum speed was performed until NOS50 was reached.

endogenous AMPK = experiment: Affinity purification using Met-beads and HepG2 cell extract, binding to AMPK; set-up: species or system human; settings: HepG2 cell extract
human PPARδ = human PPARδ (Homo sapiens, UniProt Q03181); settings: in the presence of PPARδ complex (hPPARδ, PGC1α, RXRα)
Sequence of human PPARδ (Q03181 whole entry): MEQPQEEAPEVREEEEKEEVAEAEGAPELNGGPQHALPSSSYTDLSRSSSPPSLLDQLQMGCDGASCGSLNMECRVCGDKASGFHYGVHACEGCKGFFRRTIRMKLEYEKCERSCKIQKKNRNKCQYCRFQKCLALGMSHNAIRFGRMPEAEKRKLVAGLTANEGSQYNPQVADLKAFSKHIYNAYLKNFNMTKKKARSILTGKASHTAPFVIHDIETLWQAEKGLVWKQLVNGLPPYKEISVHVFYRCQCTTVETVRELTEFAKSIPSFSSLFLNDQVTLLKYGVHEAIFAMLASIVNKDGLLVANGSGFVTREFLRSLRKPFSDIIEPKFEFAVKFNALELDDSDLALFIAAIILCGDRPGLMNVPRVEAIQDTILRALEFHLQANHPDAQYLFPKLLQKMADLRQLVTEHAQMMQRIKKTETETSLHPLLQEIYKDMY
Sequence of human PPARδ (P19793 whole entry partner): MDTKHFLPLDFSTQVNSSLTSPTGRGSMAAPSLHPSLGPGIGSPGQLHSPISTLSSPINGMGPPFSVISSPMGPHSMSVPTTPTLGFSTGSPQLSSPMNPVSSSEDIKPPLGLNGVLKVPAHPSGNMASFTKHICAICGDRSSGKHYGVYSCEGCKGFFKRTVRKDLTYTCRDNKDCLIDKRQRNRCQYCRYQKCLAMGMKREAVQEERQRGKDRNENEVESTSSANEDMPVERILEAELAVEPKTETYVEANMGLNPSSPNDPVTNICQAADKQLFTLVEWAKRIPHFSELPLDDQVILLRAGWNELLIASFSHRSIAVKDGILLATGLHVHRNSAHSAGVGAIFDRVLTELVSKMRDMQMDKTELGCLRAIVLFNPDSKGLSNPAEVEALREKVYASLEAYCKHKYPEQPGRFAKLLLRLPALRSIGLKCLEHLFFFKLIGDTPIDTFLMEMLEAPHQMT
Sequence of human PPARδ (Q9UBK2 whole entry partner): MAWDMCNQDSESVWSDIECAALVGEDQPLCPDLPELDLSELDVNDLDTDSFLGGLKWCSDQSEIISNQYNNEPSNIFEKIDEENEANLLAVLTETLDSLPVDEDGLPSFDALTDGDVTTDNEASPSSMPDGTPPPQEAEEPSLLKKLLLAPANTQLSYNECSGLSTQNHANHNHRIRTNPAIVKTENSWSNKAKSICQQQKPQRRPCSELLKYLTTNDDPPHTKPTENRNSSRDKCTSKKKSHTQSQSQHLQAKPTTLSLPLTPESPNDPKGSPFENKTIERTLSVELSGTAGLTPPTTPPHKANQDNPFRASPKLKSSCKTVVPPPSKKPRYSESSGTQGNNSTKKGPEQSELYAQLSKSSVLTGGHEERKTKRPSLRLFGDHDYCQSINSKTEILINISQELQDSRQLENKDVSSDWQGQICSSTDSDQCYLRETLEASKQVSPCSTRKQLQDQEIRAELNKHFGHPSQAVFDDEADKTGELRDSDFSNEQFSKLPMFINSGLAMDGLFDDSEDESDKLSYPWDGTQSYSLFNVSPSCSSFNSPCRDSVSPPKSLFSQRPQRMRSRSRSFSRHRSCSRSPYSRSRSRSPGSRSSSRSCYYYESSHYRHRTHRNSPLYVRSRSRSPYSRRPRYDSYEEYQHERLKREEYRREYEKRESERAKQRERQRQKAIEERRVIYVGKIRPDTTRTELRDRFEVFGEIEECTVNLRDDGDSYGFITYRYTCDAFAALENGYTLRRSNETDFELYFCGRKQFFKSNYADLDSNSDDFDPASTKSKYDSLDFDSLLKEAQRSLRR

C2C12 cells = experiment: Oxygen consumption rate (OCR) of C2C12 cells, extracellular flux analyzer; type: cell-based, mouse; settings: 100 μM metformin or 10 μM GW501516 for 24 hours; for OCR after FCCP addition: compared to DMSO-treated cells
Method: PPARδ is known to induce the expression of lipid metabolism-related genes and enhance β-oxidation of fatty acids, especially in skeletal muscle. The PPARδ agonist is expected to have an effect of increasing mitochondrial activity. […] Specifically, using C2C12 cells, the oxygen consumption rate (OCR: Oxygen Consumption Rate) of the cells was measured by a cell metabolism-measuring device (extracellular flux analyzer manufactured by Agilemt Technologies Inc.).
In this metabolic measurement, four inhibitors were used to force changes in intracellular metabolism (FIG. 14). First, oligomycin, which inhibits Complex V of the electron transport chain, was added. […] Next, the uncoupling agent FCCP (Carbonyl cyanide-p-trifluoromethoxyphenylhydrazone) was added. FCCP forcibly discharges hydrogen ions in the mitochondrial membrane to the outside of the membrane to eliminate the proton concentration gradient. Since a proton concentration gradient is required to produce ATP, the TCA cycle and electron transport chain are maximally activated when the gradient is forcibly eliminated by FCCP. This makes it possible to measure the maximum respiration rate of cells. It is known that OCR at this time is further increased in cells in which fatty acid oxidation is enhanced. Finally, rotenone and antimycin were added. Rotenone inhibits the electron transport chain complex I, and antimycin inhibits complex III.

[1] = tested on: angptl4, pdk4 and cpt1a genes; experiment: Quantitative PCR of genes whose expression is induced by PPARδ in C2C12 cells; type: cell-based, mouse; settings: 10 μM compound (A-4), 16 hours, relative to Hprt, n=3
Method: The effect of compound (A-4) on the expression of the gene whose expression is induced by PPARδ was investigated. Specifically, compound (A-4) was added to mouse skeletal muscle-derived myoblast cell line C2C12 cells, and the expression levels of the angptl4, pdk4 and the cpt1a genes, whose expression is induced by PPARδ (NPL 12), were measured. In addition, the Hprt gene was used as an endogenous control, and GW0742 was used as a positive control for PPARδ activation.
First, C2C12 cells were seeded on a 24-well plate (1×10^5 cells/well) and cultured until 80-90% confluent. DMEM containing 10% bovine serum and 1% antibiotic was used as the culture medium. After culturing for 36 hours, when the target cell density was reached, the entire medium was replaced with a serum-free DMEM medium containing each concentration of compound (A-4), and the cells were cultured for 16 hours (n=3). After culturing, the medium was discarded, a trizol reagent (manufactured by Invitrogen) for RNA extraction was directly added to each well to lyse the cells, and then the total RNA was extracted by ethanol precipitation. Using the obtained total RNA as a template, cDNA was synthesized using the reverse transcriptase “Superscript” (manufactured by […]).
Quantitative PCR was performed using the obtained cDNA as a template. The cDNA of the template, the primer that amplifies each gene to be measured, and the polymerase mix “ssoFast EvaGreen Supermix” (manufactured by Biorad) for quantitative PCR were mixed. Analysis was performed using a real-time PCR detection system “CFX connect (registered trademark)” (manufactured by Biorad).
From the obtained gene expression data, the expression level of each gene was divided by the expression level of the endogenous control gene to calculate the relative expression level.

[2] = tested on: recruitment of PPARδ to PPRE; experiment: Chromatin immunoprecipitation of FLAG-PPARδ in differentiated C2C12-PPARδ cells; type: cell-based, mouse; settings: 100 μM metformin or 1 μM GW501516, day 6 of differentiation, IgG control set as 1
Method: First, C2C12-PPARδ cells, in which FLAG-tagged PPARδ (FLAG-PPARδ) was constitutively over-expressed in C2C12 cells were prepared. […] The treated cells were subjected to chromatin immunoprecipitation (Conventional ChIP) using an antibody that recognizes the FLAG tag.

CV1 cells = experiment: Cell death observed in the CV1 luciferase assay; type: cell-based; settings: transcription activity impossible to measure
Method: Specifically, CV1 cells, which are cultured cells derived from African green monkey kidneys, were seeded on a 24-well plate (1×10^5 cells/well) and cultured until they became 70% confluent. DMEM containing 10% fetal bovine serum and 1% antibiotic was used as the culture medium. After reaching the desired cell density, the entire medium was removed, and a mixture obtained by mixing 2 μL of MH2004 (plasmid encoding a firefly luciferase gene having a Gal4 activation sequence upstream: 100 ng/μL), 1 μL of pRL-CMV (plasmid encoding the Renilla reniformis luciferase gene directly under the CMV promoter: 100 ng/μL), 2 μL of GAL4-Ppard (plasmid encoding Gal4-DNA binding region fused with PPARδ gene: 100 ng/μL) and 1.5 μL of PEI (polyethylenimine: manufactured by Invitrogen) with 45 μL culture medium “Opti-MEM” (registered trademark) (manufactured by Thermo Fisher Scientific) was added to each well, and the cells were cultured for about 36 hours.
The effect of the obtained compound (A-4) on PPARδ activity was investigated. Specifically, a luciferase assay was carried out in the same manner as in Example 8 except that compound (A-4) dissolved in DMSO (0.1%) was added to the reaction system as a test substance (n=3). […] However, when the addition amount was 50 μM or more, the cells died and it was impossible to measure the transcription activity of PPARδ.

SMILES	Light emission intensity (RLU) Average (PPARδ; n=3)	Relative emission intensity Average (PPARδ)	base OCR before the inhibitor treatment (C2C12 cells)	OCR after FCCP addition (C2C12 cells)	expression level of the angptl4 gene [1]	expression level of the cpt1a gene [1]	expression level of the pdk4 gene [1]	also measured
COc1cc(CNC(=N)N)ccc1OCc1ccccc1 [compound (B-3)]	457033	2.04						
N=C(N)NCc1ccc(COCc2ccccc2)cc1 [compound (B-1), N-({4-[(benzyloxy)methyl]phenyl}methyl) guanidine hydrobromide]	250467	1.12						
CN(C)C(=N)N=C(N)N [metformin]			did not change	increase in OCR				binding between metformin and PPARα (endogenous PPARα): not detected; exercise tolerance, metformin administration without training (C57BL/6 mice; 4 weeks, compared with control group): did not show an improvement in exercise tolerance; exercise tolerance, training + metformin administration (C57BL/6 mice; training 5 times a week for 4 weeks, compared with training group): higher exercise tolerance than the training group; binding between metformin and AMPK (endogenous AMPK): not detected; activation ability compared with GW501516 (human PPARδ): about the same as that of GW501516
Cc1cc(SCc2sc(-c3ccc(C(F)(F)F)c(F)c3)nc2C)ccc1OCC(=O)O [GW0742]					increased	increased	increased	
Cc1cc(SCc2sc(-c3ccc(C(F)(F)F)cc3)nc2C)ccc1OCC(=O)O [GW501516]			did not change	increase in OCR				recruitment of PPARδ in the vicinity of PPRE on promoters of Angptl4, Pdk4, Plin2 and Ucp3 genes [2]: recruited
Cc1cc(SCc2sc(-c3ccc(C(F)(F)F)c(F)c3)nc2C)ccc1CNC(=N)N [compound (A-4), 1-{4-[({2-[3-fluoro-4-(trifluoromethyl)phenyl]4-methylthiazole-5-yl}methyl)thio]-2-methylbenzyl}guanidine]					increased	increased	increased	addition amount at which the cells died (CV1 cells): ≥ 50 µM; transcriptional activity of PPARδ (relative transcriptional activation ability) (PPARδ; depending on the amount added, DMSO (0.1%), n=3): tended to increase
